Measurements reported in patent US20220274938A1, “5-[(1S)-1-(4-BROMOPHENOXY)ETHYL]-2H-TETRAZOLE DERIVATIVES AND RELATED COMPOUNDS AS CLC-1 ION CHANNEL INHIBITORS FOR TREATING NEUROMUSCULAR DISORDERS” (NMD PHARMA A/S, priority 2019, published 2022).

Assays:
Format in all cases: cell-based
CIC-1 ion channel = molecular target: T1, CIC-1 ion channel (Rattus norvegicus, UniProt P35524); assay: Electrophysiological measurement (Gm, three micro-electrodes) of compound inhibition of CIC-1 in rat soleus muscle fibres; settings: approx. 30° C., four increasing compound concentrations, read-out: EC50 (inhibition of CIC-1 ion channel, reduction of Gm)
T1 construct: CIC-1 channels in native tissue of rat skeletal muscle fibres; from tissue; host or cells: whole soleus muscle of 12-14 week old Wistar rats
T1 sequence (P35524 1-994): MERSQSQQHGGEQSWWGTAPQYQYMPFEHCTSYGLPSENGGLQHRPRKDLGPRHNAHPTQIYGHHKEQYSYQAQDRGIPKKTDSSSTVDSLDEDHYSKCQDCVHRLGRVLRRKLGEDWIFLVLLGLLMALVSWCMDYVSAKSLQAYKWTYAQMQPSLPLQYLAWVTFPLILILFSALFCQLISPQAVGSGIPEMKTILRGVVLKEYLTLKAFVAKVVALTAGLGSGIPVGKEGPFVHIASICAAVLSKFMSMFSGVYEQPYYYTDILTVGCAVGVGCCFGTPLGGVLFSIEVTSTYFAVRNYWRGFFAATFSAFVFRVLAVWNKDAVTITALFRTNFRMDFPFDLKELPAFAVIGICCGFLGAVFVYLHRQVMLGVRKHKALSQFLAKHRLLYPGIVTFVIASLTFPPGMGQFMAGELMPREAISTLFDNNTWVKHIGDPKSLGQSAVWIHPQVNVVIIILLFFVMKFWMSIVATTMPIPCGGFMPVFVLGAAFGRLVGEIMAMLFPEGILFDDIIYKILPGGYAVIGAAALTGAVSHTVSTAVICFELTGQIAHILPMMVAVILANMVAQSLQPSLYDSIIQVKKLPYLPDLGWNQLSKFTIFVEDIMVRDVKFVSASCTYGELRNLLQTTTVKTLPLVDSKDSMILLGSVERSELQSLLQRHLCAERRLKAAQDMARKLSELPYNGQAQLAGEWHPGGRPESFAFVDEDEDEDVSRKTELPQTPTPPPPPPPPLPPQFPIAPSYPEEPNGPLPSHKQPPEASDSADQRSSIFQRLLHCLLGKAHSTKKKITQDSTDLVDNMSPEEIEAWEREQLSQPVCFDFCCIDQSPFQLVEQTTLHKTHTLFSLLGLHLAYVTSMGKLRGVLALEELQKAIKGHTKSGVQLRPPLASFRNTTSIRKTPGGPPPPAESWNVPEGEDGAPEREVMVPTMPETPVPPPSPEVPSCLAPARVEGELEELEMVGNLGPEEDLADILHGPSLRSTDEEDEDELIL
Description: FIG. 1. […] Please note that the drawing illustrates only the impaled fibre although it is part of an intact muscle that contains many such fibres. All electrodes recorded the membrane potential of the fibre and the two peripheral electrodes were used to inject current (−30 nA, 50 ms). The electrodes were inserted with known inter-electrode distances (X1, X2 and X3). After insertion, current was passed first via the V1 electrode and then via the V3 electrode. The resulting deflections in the membrane voltage were measured by the other electrodes. The steady state deflections in membrane potential were measured and divided by the magnitude of the injected current (−30 nA) to obtain transfer resistances. These were next plotted against inter-electrode distances, and fitted to an exponential function (Panel B), from which Gm could be calculated using linear cable theory. The approach described in panel A and B, was repeated for several muscle fibres in the muscle during exposure at increasing concentrations of compound E-8, with approx. 10 fibres at each concentration. Average Gm at each concentration was plotted as a function of compound concentration in panel C, and fitted to a 4-parameter sigmoidal function from which the EC50 value for the compound was obtained (dashed line)
Apparent CIC-1 affinity was reported by the concentration of compound at which 50% of the compound's full inhibition of CIC-1 was observed (EC50).
CIC-1 Cl^− ion channels generate around 80% of the total membrane conductance (Gm) in resting skeletal muscle fibres of most animals including rat and human (Bretag, A H. Muscle chloride channels. Physiological Reviews, 1987, 67, 618-724). […] CIC-1 inhibition would in such recordings be reflected by a reduction of Gm.
Experimentally, Gm was measured in individual fibres of whole rat soleus muscles using a three micro-electrodes technique described in this example and in full detail elsewhere (Riisager et al., Determination of cable parameters in skeletal muscle fibres during repetitive firing of action potentials. Journal of Physiology, 2014, 592, 4417-4429). Briefly, intact rat soleus muscles were dissected out from 12-14 week old Wistar rats and placed in an experimental chamber that was perfused with a standard Krebs Ringer solution containing 122 mM NaCl, 25 mM NaHCO3, 2.8 mM KCl, 1.2 mM KH2PO4, 1.2 mM MgSO4, 1.3 mM CaCl2, 5.0 mM D-glucose. During experiments, the solution was kept at approx. 30° C. and continuously equilibrated with a mixture of 95% O2 and 5% CO2, pH˜7.4. The experimental chamber was placed in Nikon upright microscope that was used to visualize individual muscle fibres and the three electrodes (glass pipettes filled with 2 M potassium citrate). For Gm measurements, the electrodes were inserted into the same fibre with known inter-electrode distances of 0.35-0.5 mm (V1-V2, X1) and 1.1-1.5 mm (V1-V3, X3) (FIG. 1A). The membrane potential of the impaled muscle fibre was recorded by all electrodes. Two of the electrodes were furthermore used to inject 50 ms current pulses of −30 nA. […] The steady state voltage deflection at each distance was divided by the magnitude of current injected (−30 nA) and the resulting transfer resistances were plotted against inter-electrode distance and the data was fitted to a mono-exponential function from which Gm could be calculated using linear cable theory (FIG. 1B).
To establish a dose response relationship, Gm was first determined in 10 muscle fibres in the absence of compound and then at four increasing compound concentrations with Gm determinations in 5-10 fibres at each concentration. The average Gm values at each concentration were plotted against compound concentration and the data was fitted to sigmoidal function to obtain an EC50 value (FIG. 1C).

[1] = tested on: isolated rat soleus muscles; assay: Measurement of force in an in vitro model: isolated rat soleus nerve-muscle preparation with tubocurarine; settings: Rattus norvegicus, 40 min; 50 μM test compound, after 40 mins of compound exposure; 115 nM tubocurarine for 90 mins; read-out: Point increase (%) of initial force that was restored
Description: FIG. 2. […] Force traces from a representative muscle stimulated to contract in 1) control condition before addition of neuromuscular blocking agent, 2) the force response to stimulation after 90 minutes incubation with Tubocurarine. […] The traces presented in panel A (1, 2, 3), correspond to the dotted lines in panel B, respectively.
Recovery of force is quantified as the percentage of the force prior to tubocurarine that is recovered by the compound.
The current disclosure relates to compounds that inhibit CIC-1 ion channels and increase muscle excitability and thereby improve muscle function in clinical conditions where muscle activation is failing. Such conditions result in loss of contractile function of skeletal muscle, weakness and excessive fatigue. In this series of experiments the compounds were tested for their ability to restore contractile function of isolated rat muscle when the neuromuscular transmission had been compromised akin to neuromuscular disorders.
Experimentally, soleus muscles from 4-5 week old rats were isolated with the motor nerve remaining attached. The nerve-muscle preparations were mounted in experimental setups that enabled electrical stimulation of the motor nerve. Stimulation of the motor nerve led to activation of the muscle fibres and ensuing force production that was recorded. The nerve-muscle preparations were also in these experiments incubated in the standard Krebs Ringer (see example 5) and the solution was heated to 30° C. and continuously equilibrated with a mixture of 95% O2 and 5% CO2, pH˜7.4.
After mounting the nerve-muscle preparation in the experimental setup, the contractile function of the muscle was initially assessed under the control conditions (FIG. 2A). […] The experimental condition mimics the failing neuromuscular transmission in a range of neuromuscular disorders. After addition of tubocurarine the contractile force declined over the next 90 mins to 10-50% of the control force. 50 μM of the test compound was then added and the contractile force recovered despite the continued presence of tubocurarine. To quantify the ability of the compound to restore force the percentage of the initial force that was restored was determined after 40 mins of compound exposure (FIG. 2B) and the point increase is reported in Table 3.

human CIC-1 channels = molecular target: T2, human CIC-1 channels (Homo sapiens, UniProt P35523); assay: Automated patch-clamp on the human isoform of CIC-1 expressed in CHO cells; settings: compound added to the intracellular solution vs control cell patches, positive shift reflects inhibition
T2 construct: host or cells: CHO (Chinese hamster ovary) cells, cryopreserved, used directly after thawing
T2 sequence (P35523 whole entry, canonical isoform): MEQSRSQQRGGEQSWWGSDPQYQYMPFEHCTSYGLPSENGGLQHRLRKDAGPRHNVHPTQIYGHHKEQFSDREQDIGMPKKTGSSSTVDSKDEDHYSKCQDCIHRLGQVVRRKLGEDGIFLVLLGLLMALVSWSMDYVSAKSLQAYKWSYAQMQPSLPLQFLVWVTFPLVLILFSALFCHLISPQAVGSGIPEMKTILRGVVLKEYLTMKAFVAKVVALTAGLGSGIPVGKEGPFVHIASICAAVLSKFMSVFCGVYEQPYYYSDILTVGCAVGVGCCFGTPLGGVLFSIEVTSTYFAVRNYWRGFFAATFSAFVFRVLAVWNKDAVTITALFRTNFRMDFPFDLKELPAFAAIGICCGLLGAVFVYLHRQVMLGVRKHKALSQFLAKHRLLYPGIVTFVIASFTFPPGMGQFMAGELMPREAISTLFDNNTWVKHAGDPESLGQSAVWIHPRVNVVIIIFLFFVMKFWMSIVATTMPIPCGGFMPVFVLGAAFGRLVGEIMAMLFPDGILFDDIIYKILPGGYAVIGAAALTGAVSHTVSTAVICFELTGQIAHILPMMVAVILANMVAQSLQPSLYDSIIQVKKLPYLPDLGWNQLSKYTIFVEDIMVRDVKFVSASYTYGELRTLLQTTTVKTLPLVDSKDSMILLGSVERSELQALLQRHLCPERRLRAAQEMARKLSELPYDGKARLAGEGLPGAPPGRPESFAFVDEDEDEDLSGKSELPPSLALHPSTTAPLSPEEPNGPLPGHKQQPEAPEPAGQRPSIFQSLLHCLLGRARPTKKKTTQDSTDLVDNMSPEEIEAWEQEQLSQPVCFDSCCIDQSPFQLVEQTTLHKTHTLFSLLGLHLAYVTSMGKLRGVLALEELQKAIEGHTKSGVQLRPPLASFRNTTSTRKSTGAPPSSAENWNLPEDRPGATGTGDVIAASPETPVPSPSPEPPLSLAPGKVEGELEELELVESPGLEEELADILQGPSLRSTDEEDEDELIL
Description: The investigatory goal of these experiments was to evaluate how compounds affect the open probability and current amplitude of human CIC-1 channels expressed in CHO cells. Experiments were performed using an automated patch clamp system that allowed high throughput testing of whole cell patches together with both intracellular and extracellular addition of compound.
Automated whole cell patch clamp experiments were performed with the Qpatch 16 system (Sophion Bioscience, Ballerup, Denmark) at room temperature. Data acquisition and analysis were performed in the Qassay software (ver. 5.6, Odense).
To obtain tail currents, the membrane potential was stepped to −100 mV after each test voltage for 300 ms and then relaxed to −30 mV for 2 sec between sweeps (FIG. 3). I/V relationships for whole cell instant and steady state current amplitudes were obtained by plotting average current densities at the beginning and at the end of the 300 ms step against the membrane potential (FIG. 4).
In order to determine the relative overall open probability (Po), the instantaneous tail currents were normalized to the maximal tail current obtained following the most positive voltage step and plotted against the test voltage. Plots of normalized tail currents from each whole cell patch were then fitted to a Boltzmann function allowing determination of half activation voltages (V1/2, FIG. 5).
Osmolality adjusted to ˜320 using sucrose. Intracellular solutions contained: 80 mM CsF, 60 mM CsCl, 5/1 mM KOH/EGTA, 10 mM HEPES, 10 mM NaCl, pH adjusted to 7.2 with NaOH (2 M). Osmolality adjusted to ˜320 mOsm using sucrose.
Cells used in patch clamp experiments were Chinese hamster ovary cells (CHO) constitutively expressing human CIC-1 channels. The amino acid sequence encoded by the cDNA used to create this cell line was identical to the translated sequence for GenBank accession number NM_000083.2. Cells were produced by Charles River (Catalogue CT6175, Cleveland Ohio, USA) in a cryopreserved format. Experiments were performed on the cells directly after thawing (3×10^6 cells used in each experiment).
To evaluate the compound effect on CIC-1, when applied directly to the intracellular side of the cell membrane, the half activation voltage, V1/2, was determined from whole cell patches with compound added to the intracellular solution and then compared to V1/2 determined from control cell patches with only vehicle added to the intracellular solution. Additionally, the effect of extracellular added compound was evaluated by determine V1/2 and steady state current amplitudes before and after exchanging the extracellular solution to contain compound.
The difference in half activation voltage of CIC-1 channels, ΔV1/2, was determined as the difference between the cell patches treated intracellularly with compound and control cells patches and is reported in Table 4 below. A positive shift in ΔV1/2 is reflecting CIC-1 channel inhibition by the tested compound. P-values of <0.05 is considered significant.

SMILES	EC50 (CIC-1 ion channel) [µM]	ΔV1/2 (difference in half activation voltage of CIC-1 channels) (human CIC-1 channels) [mV]	activation at 50 µM [1] [%]
C[C@H](Oc1ccc(Cl)cc1)C(=O)NOCC1CCC1 [Compound C-75, (2S)-2-(4-chlorophenoxy)-N-(cyclobutylmethoxy)propanamide]	2	–	36
CC(=O)N1CCC(ONC(=O)[C@H](C)Oc2ccc(Br)cc2)C1 (stereo partly shown) [Compound C-8]	–	10.3	45
CC(=O)NCCON(C(C)=O)C(=O)[C@H](C)Oc1ccc(Cl)cc1 [Compound C-22, (2S)-N-acetyl-2-(4-chlorophenoxy)-N-(2-acetamidoethoxy)propanamide]	7.8	–	22
C[C@H](Oc1ccc(Cl)cc1)C(=O)NC#N [Compound B-4, (2S)-2-(4-chlorophenoxy)-N-cyanopropanamide]	–	21.2	–
CC[C@H](Oc1ccc(Br)cc1)c1nn[nH]n1 [Compound E-5, 5-[(1S)-1-(4-bromophenoxy)propyl]-2H-1,2,3,4-tetrazole]	–	13.9	–

Now from value to compound, other results behind:

EC50 (CIC-1 ion channel) [µM]	ΔV1/2 (difference in half activation voltage of CIC-1 channels) (human CIC-1 channels) [mV]	SMILES	activation at 50 µM [1] [%]
3.1	–	COC(=O)CONC(=O)[C@H](C)Oc1ccc(Cl)cc1 [Compound C-78, methyl 2-{[(2S)-2-(4-chlorophenoxy)propanamido]oxy}acetate]	41
10.1	–	CONC(=O)[C@H](C)Oc1ccc(Cl)cc1 [Compound C-85, (2S)-2-(4-chlorophenoxy)-N-methoxypropanamide]	45
–	6.2	C[C@H](Oc1ccc(Br)cc1Br)C(=O)NC#N [Compound B-2, (2S)-N-cyano-2-(2,4-dibromophenoxy)propanamide]	–
19.6	26.6	CC(C)[C@H](Oc1ccc(Br)cc1)C(=O)NC#N [Compound B-5, (2S)-2-(4-bromophenoxy)-N-cyano-3-methylbutanamide]	–
3.1	–	CONC(=O)[C@H](C)Oc1ccc(Br)cc1F [Compound C-64, (2S)-2-(4-bromo-2-fluorophenoxy)-N-methoxypropanamide]	24
3.4	–	C[C@H](Oc1ccc(Cl)cc1)C(=O)NOCC1CC1 [Compound C-74, (2S)-2-(4-chlorophenoxy)-N-(cyclopropylmethoxy)propanamide]	22
